The text below walks through data of patent US20190374533A1, “COMPOUNDS AND METHODS FOR INHIBITING NHE-MEDIATED ANTIPORT IN THE TREATMENT OF DISORDERS ASSOCIATED WITH FLUID RETENTION OR SALT OVERLOAD AND GASTROINTESTINAL TRACT DISORDERS” (Ardelyx, Inc., priority 2008, published 2019).

One series has as its target T1, rat NHE-3 (Rattus norvegicus, UniProt P26433).
T1 construct: expressed in transfected cells; host or cells: Opossum kidney (OK) cells (ATCC), electroporated
Nature of the series: Cell-based assay of NHE-3 activity (Pharmacological Test Example 1). Particulars: OK cells expressing rat NHE-3, 0-30 uM test compound, 5 uM EIPA. The method, then:
Rat NHE-3-mediated Na^+-dependent H^+ antiport was measured using a modification of the pH sensitive dye method originally reported by Tsien (Proc. Natl. Acad. Sci. USA. (1984) 81(23): 7436-7440). Opossum kidney (OK) cells were obtained from the ATCC and propagated per their instructions. The rat NHE-3 gene was introduced into OK cells via electroporation, seeded into 96 well plates and grown overnight. Medium was aspirated from the wells, cells were washed twice with NaCl-HEPES buffer (100 mM NaCl, 50 mM HEPES, 10 mM glucose, 5 mM KCl, 2 mM CaCl2, 1 mM MgCl2, pH 7.4), then incubated for 30 min at room temperature with NH4Cl-HEPES buffer (20 mM NH4Cl, 80 mM NaCl, 50 mM HEPES, 5 mM KCl, 2 mM CaCl2), 1 mM MgCl2, pH 7.4) containing 5 uM BCECF-AM (Invitrogen). Cells were washed twice with Ammonium free, Nat-free HEPES (100 mM choline, 50 mM HEPES, 10 mM glucose, 5 mM KCl, 2 mM CaCl2), 1 mM MgCl2, pH 7.4) and incubated in the same buffer for 10 minutes at room temperature to lower intracellular pH. […] Initial rates were plotted as the average 3-6 replicates, and pIC50 values were estimated using GraphPad Prism.

Series [1] in a line: Determination of compound Cmax and AUC. The class given is in vivo. Particulars: rat; Sprague-Dawley rats, oral gavage, serum 0.5-4 h; actual oral dose (mg/kg) given. The protocol: Sprague-Dawley rats were orally gavaged with test article (2.5 mg/kg) and serum was collected at 0.5, 1, 2 and 4 h. Serum samples were treated with acetonitrile, precipitated proteins removed by centrifugation and supernatants analyzed by LC/MS/MS and compared against a standard curve to determine compound concentration. All compounds were orally dosed at the dosage shown, and pharmacokinetic parameters determined as described in the text.

Where only a bound is given, the exact number is not on record here.

T1 sequence (P26433 29-831): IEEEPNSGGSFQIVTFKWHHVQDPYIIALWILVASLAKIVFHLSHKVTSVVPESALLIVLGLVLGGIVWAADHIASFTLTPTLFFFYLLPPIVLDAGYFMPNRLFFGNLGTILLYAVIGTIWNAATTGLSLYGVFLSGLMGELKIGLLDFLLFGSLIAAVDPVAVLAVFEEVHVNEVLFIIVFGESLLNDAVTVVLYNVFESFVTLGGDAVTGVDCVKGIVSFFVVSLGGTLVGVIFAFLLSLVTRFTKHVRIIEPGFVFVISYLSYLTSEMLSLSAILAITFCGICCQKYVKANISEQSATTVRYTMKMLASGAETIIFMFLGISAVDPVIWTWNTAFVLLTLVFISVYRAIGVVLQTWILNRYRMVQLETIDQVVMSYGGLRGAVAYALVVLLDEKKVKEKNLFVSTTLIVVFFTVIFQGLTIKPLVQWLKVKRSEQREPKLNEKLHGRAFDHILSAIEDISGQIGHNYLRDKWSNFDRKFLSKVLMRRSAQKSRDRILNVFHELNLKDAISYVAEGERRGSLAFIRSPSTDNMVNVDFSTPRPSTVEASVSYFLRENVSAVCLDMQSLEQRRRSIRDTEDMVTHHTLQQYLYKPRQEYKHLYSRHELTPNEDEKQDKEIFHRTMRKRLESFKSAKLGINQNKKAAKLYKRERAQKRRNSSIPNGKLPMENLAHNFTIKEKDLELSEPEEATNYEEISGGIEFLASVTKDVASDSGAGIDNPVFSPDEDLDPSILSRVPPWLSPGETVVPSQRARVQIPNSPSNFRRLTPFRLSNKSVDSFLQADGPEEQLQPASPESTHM

Regarding `CN1Cc2c(Cl)cc(Cl)cc2C(c2cccc(S(=O)(=O)NCCOCCOCCOCCNC(=O)Nc3ccc(NC(=O)NCCOCCOCCOCCNS(=O)(=O)c4cccc(C5CN(C)Cc6c(Cl)cc(Cl)cc65)c4)cc3)c2)C1` (stereo not drawn) [Example 209, N,N′-(1,1′-(1,4-phenylenebis(azanediyl))bis(1-oxo-5,8,11-trioxa-2-azatridecane-13,1-diyl))bis(3-(6,8-dichloro-2-methyl-1,2,3,4-tetrahydroisoquinolin-4-yl)benzenesulfonamide)], on rat NHE-3 (read-out: rat NHE-3 Average pIC50 (converted)), the IC50 is 1 to 10 µM.

In series [1], `CN1Cc2c(Cl)cc(Cl)cc2C(c2cccc(S(=O)(=O)NCCOCCOCCOCCOCCOCCOCCOCCOCCOCCOCCN)c2)C1` (stereo not drawn) [Example 214, N-(32-amino-3,6,9,12,15,18,21,24,27,30-decaoxadotriacontyl)-3-(6,8-dichloro-2-methyl-1,2,3,4-tetrahydroisoquinolin-4-yl)benzenesulfonamide] registered an AUC below 5 ng·h/mL and a Cmax below 5 ng/mL.

Consider `CN1Cc2c(Cl)cc(Cl)cc2C(c2cccc(S(=O)(=O)NCCOCCOCCNC(=O)C(C)(C)C(=O)NCCOCCOCCNS(=O)(=O)c3cccc(C4CN(C)Cc5c(Cl)cc(Cl)cc54)c3)c2)C1` (stereo not drawn) [Example 196, N1,N3-bis(2-(2-(2-(3-(6,8-dichloro-2-methyl-1,2,3,4-tetrahydroisoquinolin-4-yl)phenylsulfonamido)ethoxy)ethoxy)ethyl)-2,2-dimethylmalonamide], for which the “rat NHE-3 Average pIC50” value on rat NHE-3 is 5 to 6.

With `CN1Cc2c(Cl)cc(Cl)cc2C(c2cccc(NC(=O)CCOCCOCCOCCNC(=O)[C@H](O)[C@@H](O)C(=O)NCCOCCOCCOCCC(=O)Nc3cccc(C4CN(C)Cc5c(Cl)cc(Cl)cc54)c3)c2)C1` (stereo partly drawn) [Example 179, (2R,3R)—N1,N4-bis(2-(2-(2-(3-(3-(6,8-dichloro-2-methyl-1,2,3,4-tetrahydroisoquinolin-4-yl)phenylamino)-3-oxopropoxy)ethoxy)ethoxy)ethyl)-2,3-dihydroxysuccinamide], in series [1], the AUC is below 35 ng·h/mL and the Cmax is below 16 ng/mL.

In series [1], `CN1Cc2c(Cl)cc(Cl)cc2[C@H](c2cccc(S(=O)(=O)NCCOCCOCCOCCNC(=O)Nc3ccc(NC(=O)NCCOCCOCCOCCNS(=O)(=O)c4cccc([C@@H]5CN(C)Cc6c(Cl)cc(Cl)cc65)c4)cc3)c2)C1` (single isomer, unassigned) [Example 245, (S or R)—N,N′-(1,1′-(1,4-phenylenebis(azanediyl))bis(1-oxo-5,8,1-trioxa-2-azatridecane-13,1-diyl))bis(3-((S or R)-6,8-dichloro-2-methyl-1,2,3,4-tetrahydroisoquinolin-4-yl)benzenesulfonamide)] yielded an area under the curve (AUC) below 2 ng·h/mL and a Cmax below 2 ng/mL.

`CN(CC(=O)NCCOCCOCCNS(=O)(=O)c1ccc(C2CN(C)Cc3c(Cl)cc(Cl)cc32)cc1)CC(=O)NCCOCCOCCNS(=O)(=O)c1ccc(C2CN(C)Cc3c(Cl)cc(Cl)cc32)cc1` (stereo not drawn) [Example 185, 2,2′-(methylazanediyl)bis(N-(2-(2-(2-(4-(6,8-dichloro-2-methyl-1,2,3,4-tetrahydroisoquinolin-4-yl)phenylsulfonamido)ethoxy)ethoxy)ethyl)acetamide) tris(2,2,2-trifluoroacetate)]: in series [1], the AUC is below 2 ng·h/mL and the Cmax was below 2 ng/mL.

Turning to `CN1Cc2c(Cl)cc(Cl)cc2C(c2cccc(S(=O)(=O)NCCOCCOCCOCCNC(=O)C(O)C(O)C(=O)NCCOCCOCCOCCNS(=O)(=O)c3cccc(C4CN(C)Cc5c(Cl)cc(Cl)cc54)c3)c2)C1` (stereo not drawn) [Example 172, N1,N4-bis(2-(2-(2-(2-(3-(6,8-dichloro-2-methyl-1,2,3,4-tetrahydroisoquinolin-4-yl)phenylsulfonamido)ethoxy)ethoxy)ethoxy)ethyl)-2,3-dihydroxysuccinamide], in series [1], the AUC is below 2 ng·h/mL and the Cmax was below 2 ng/mL.

As to `CN1Cc2c(Cl)cc(Cl)cc2C(c2cccc(NC(=O)NCCOCCOCCOCCNC(=O)C(O)C(O)C(=O)NCCOCCOCCOCCNC(=O)Nc3cccc(C4CN(C)Cc5c(Cl)cc(Cl)cc54)c3)c2)C1` (stereo not drawn) [Example 174, N1,N4-bis(1-(3-(6,8-dichloro-2-methyl-1,2,3,4-tetrahydroisoquinolin-4-yl)phenylamino)-1-oxo-5,8,11-trioxa-2-azatridecan-13-yl)-2,3-dihydroxysuccinamide], in series [1], the AUC was below 5 ng·h/mL and the Cmax was below 5.4 ng/mL.

As for `CN1Cc2c(Cl)cc(Cl)cc2C(c2cccc(S(=O)(=O)NCCOCCOCCNC(=O)NCCOCCOCCNS(=O)(=O)c3cccc(C4CN(C)Cc5c(Cl)cc(Cl)cc54)c3)c2)C1` (stereo not drawn) [Example 235, N,N′-(10-oxo-3,6,14,17-tetraoxa-9,11-diazanonadecane-1,19-diyl)bis(3-(6,8-dichloro-2-methyl-1,2,3,4-tetrahydroisoquinolin-4-yl)benzenesulfonamide)], in series [1], the AUC was below 5 ng·h/mL and the Cmax is below 5 ng/mL.

In series [1], `CN1Cc2c(Cl)cc(Cl)cc2C(c2cccc(S(=O)(=O)NCCOCCOCCOCCNC(=O)CCC(=O)NCCOCCOCCOCCNS(=O)(=O)c3cccc(C4CN(C)Cc5c(Cl)cc(Cl)cc54)c3)c2)C1` (stereo not drawn) [Example 181, N1,N4-bis(2-(2-(2-(2-(3-(6,8-dichloro-2-methyl-1,2,3,4-tetrahydroisoquinolin-4-yl)phenylsulfonamido)ethoxy)ethoxy)ethoxy)ethyl)succinamide] showed an area under the curve (AUC) below 2 ng·h/mL and a Cmax below 2 ng/mL.

For `CN1Cc2c(Cl)cc(Cl)cc2C(c2cccc(S(=O)(=O)NCCNC(=O)C(O)C(O)C(=O)NCCNS(=O)(=O)c3cccc(C4CN(C)Cc5c(Cl)cc(Cl)cc54)c3)c2)C1` (stereo not drawn) [Example 169, N1,N4-bis(2-(3-(6,8-dichloro-2-methyl-1,2,3,4-tetrahydroisoquinolin-4-yl)phenylsulfonamido)ethyl)-2,3-dihydroxysuccinamide], in series [1], the AUC was below 4 ng·h/mL and the Cmax was below 3.5 ng/mL.

In series [1], `C/C(=C\c1cc(F)c(Oc2ccc(S(=O)(=O)NCCN3CCN(CCNS(=O)(=O)c4ccc(Oc5c(F)cc(/C=C(\C)C(=O)N=C(N)N)cc5F)cc4)CC3)cc2)c(F)c1)C(=O)N=C(N)N` [Example 50, N,N′-(2,2′-(piperazine-1,4-diyl)bis(ethane-2,1-diyl))di-((E)-N-(diaminomethylene)-3-(3,5-difluoro-4-(4-sulfamoylphenoxy)phenyl)-2-methylacrylamide)] returned an area under the curve (AUC) of 242 ng·h/mL and a Cmax of 93 ng/mL.

In series [1], `CN1Cc2c(Cl)cc(Cl)cc2C(c2cccc(S(=O)(=O)NCCOCCOCCNC(=O)[C@H](O)[C@@H](O)C(=O)NCCOCCOCCNS(=O)(=O)c3cccc(C4CN(C)Cc5c(Cl)cc(Cl)cc54)c3)c2)C1` (stereo partly drawn) [Example 218, (2R,3R)—N1,N4-bis(2-(2-(2-(3-(6,8-dichloro-2-methyl-1,2,3,4-tetrahydroisoquinolin-4-yl)phenylsulfonamido)ethoxy)ethoxy)ethyl)-2,3-dihydroxysuccinamide] returned an AUC below 1 ng·h/mL and a peak concentration (Cmax) below 1 ng/mL.

On to `CN1Cc2c(Cl)cc(Cl)cc2C(c2ccc(S(=O)(=O)NCCOCCOCCNC(=O)c3cc(N)cc(C(=O)NCCOCCOCCNS(=O)(=O)c4ccc(C5CN(C)Cc6c(Cl)cc(Cl)cc65)cc4)c3)cc2)C1.O=C(O)C(F)(F)F.O=C(O)C(F)(F)F.O=C(O)C(F)(F)F` (stereo not drawn) [Example 186, 5-amino-N1,N3-bis(2-(2-(2-(4-(6,8-dichloro-2-methyl-1,2,3,4-tetrahydroisoquinolin-4-yl)phenylsulfonamido)ethoxy)ethoxy)ethyl)isophthalamide tris(2,2,2-trifluoroacetate)], for which, in series [1], the area under the curve (AUC) was below 5 ng·h/mL and the Cmax is below 3.4 ng/mL.

In series [1], `CN1Cc2c(Cl)cc(Cl)cc2[C@@H](c2ccc(S(=O)(=O)NCCOCCOCCOCCNC(=O)C(O)C(O)C(=O)NCCOCCOCCOCCNS(=O)(=O)c3ccc([C@H]4CN(C)Cc5c(Cl)cc(Cl)cc54)cc3)cc2)C1` (single isomer, unassigned) [Example 226, N1,N4-bis(2-(2-(2-(2-(4-((R or S)-6,8-dichloro-2-methyl-1,2,3,4-tetrahydroisoquinolin-4-yl)phenylsulfonamido)ethoxy)ethoxy)ethoxy)ethyl)-2,3-dihydroxysuccinamide] came in with an area under the curve (AUC) below 5 ng·h/mL and a Cmax below 3 ng/mL.

In series [1], `CN1Cc2c(Cl)cc(Cl)cc2C(c2cccc(S(=O)(=O)NCCOCCOCCOCCNC(=O)C(=O)NCCOCCOCCOCCNS(=O)(=O)c3cccc(C4CN(C)Cc5c(Cl)cc(Cl)cc54)c3)c2)C1` (stereo not drawn) [Example 180, N1,N2-bis(2-(2-(2-(2-(3-(6,8-dichloro-2-methyl-1,2,3,4-tetrahydroisoquinolin-4-yl)phenylsulfonamido)ethoxy)ethoxy)ethoxy)ethyl)oxalamide] had an AUC below 19 ng·h/mL and a Cmax below 10 ng/mL.
